19 molecules from ChEMBL document CHEMBL1201862, “PubChem BioAssay data set” (2004) can be followed below.

In test [1] the target is T1, COUP transcription factor 2 (Homo sapiens, UniProt P24468).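 Also: HEK293 cells transiently cotransfected with COUP-TFII expression vector and reporter; luciferase reporter luminescence driven by COUP-TFII from the pX2-168 reporter plasmid.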
T1 sequence (P24468 whole entry): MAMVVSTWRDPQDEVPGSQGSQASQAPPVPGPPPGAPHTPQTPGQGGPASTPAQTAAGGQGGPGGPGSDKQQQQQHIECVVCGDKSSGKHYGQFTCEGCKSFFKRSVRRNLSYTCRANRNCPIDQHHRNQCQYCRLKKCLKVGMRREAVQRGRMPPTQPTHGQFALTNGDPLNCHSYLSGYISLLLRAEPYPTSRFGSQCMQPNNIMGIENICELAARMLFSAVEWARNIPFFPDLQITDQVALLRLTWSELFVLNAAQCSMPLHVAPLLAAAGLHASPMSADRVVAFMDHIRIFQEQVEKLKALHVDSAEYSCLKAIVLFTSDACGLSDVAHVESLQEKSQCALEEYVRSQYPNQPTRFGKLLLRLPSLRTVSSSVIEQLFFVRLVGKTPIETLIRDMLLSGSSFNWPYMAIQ
Kind of test: Luminescence-based cell-based high throughput dose response assay to identify inhibitors of COUP-TFII (NR2F2). The class given is functional.

For test [2], the target named is T2, Histone-lysine N-methyltransferase NSD2 (Homo sapiens, UniProt O96028).
T2 sequence (O96028 whole entry): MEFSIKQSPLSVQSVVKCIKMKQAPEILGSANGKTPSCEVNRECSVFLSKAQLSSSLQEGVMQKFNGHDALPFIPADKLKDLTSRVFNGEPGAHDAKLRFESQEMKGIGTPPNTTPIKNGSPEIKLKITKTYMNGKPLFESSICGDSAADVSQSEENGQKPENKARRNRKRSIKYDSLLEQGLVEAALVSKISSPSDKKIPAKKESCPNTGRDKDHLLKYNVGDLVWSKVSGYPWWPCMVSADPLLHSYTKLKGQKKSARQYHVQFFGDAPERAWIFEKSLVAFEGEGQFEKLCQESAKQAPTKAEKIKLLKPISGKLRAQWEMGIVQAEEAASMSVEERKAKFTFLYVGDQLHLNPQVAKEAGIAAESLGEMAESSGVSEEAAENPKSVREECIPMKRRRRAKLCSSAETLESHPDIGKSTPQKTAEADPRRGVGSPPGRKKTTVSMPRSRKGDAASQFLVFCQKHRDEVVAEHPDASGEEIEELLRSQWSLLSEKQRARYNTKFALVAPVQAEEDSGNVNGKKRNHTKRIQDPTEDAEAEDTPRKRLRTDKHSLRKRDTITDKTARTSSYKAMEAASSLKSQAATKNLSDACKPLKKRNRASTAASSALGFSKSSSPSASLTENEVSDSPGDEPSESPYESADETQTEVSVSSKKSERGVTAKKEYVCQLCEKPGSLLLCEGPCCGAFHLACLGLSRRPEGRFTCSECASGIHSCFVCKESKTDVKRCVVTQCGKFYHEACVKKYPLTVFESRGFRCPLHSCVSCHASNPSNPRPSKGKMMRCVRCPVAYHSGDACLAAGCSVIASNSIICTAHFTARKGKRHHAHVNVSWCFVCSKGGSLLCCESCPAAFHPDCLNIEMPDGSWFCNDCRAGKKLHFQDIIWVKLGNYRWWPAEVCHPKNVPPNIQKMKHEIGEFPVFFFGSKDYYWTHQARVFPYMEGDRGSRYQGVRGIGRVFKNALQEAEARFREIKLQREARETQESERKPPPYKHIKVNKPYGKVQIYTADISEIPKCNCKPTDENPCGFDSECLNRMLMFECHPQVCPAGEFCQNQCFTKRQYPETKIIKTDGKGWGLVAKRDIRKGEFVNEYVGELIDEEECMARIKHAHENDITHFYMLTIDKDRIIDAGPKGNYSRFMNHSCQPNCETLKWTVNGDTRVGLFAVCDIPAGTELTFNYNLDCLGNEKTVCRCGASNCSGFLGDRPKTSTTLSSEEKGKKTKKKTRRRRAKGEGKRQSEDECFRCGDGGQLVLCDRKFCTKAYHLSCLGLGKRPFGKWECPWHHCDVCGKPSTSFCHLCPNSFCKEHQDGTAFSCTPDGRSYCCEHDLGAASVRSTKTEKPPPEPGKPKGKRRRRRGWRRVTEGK
The class given is biochemical.

For test [3], the target named is Mitogen-activated protein kinase 10 (Homo sapiens, UniProt P53779). Kind of test: Dose response biochemical screening assay for inhibitors of c-Jun N-Terminal Kinase 3 (JNK3). [Related pubchem assays: 746 ].
The target of test [4] is T3, E3 ubiquitin-protein ligase XIAP (Homo sapiens, UniProt P98170). Kind of test: Counter Screen using XIAP-Bir3 for Chemical Antagonists of Bir1/2 domains of IAP-family anti-apoptotic proteins. [Related pubchem assays (depositor defined):AID1018, AID1449, AID1514, AID1638, AID1749, AID1750, AID488957, AID488963]. (A counterscreen serves to expose hits that act by an unwanted route or on another target.)

The target in test [5] is T3, E3 ubiquitin-protein ligase XIAP. Kind of test: XIAP antagonists, biochemical, IAP family, fluorescence polarization (AID 1018). The format is functional.
The nature of test [6]: P. falciparum Dd2 growth inhibitors, dose response, SYBR Green, dry powder samples, set 9 (AID 1159568). The class given is functional, cell-based.
The nature of test [7]: P. falciparum Dd2 growth inhibitors, dose response, SYBR Green, cherry-picked samples (AID 1159567). The class given is functional, cell-based.
Another test relates to H4. Kind of test: Luminescence Cell-Based Dose Response HTS to Identify Activators of 5'UTR Stem-Loop Driven Prion Protein mRNA Translation in H4 Neuroglioblastoma Cells. [Related pubchem assays: 1829 (Project Summary), 1814 (Primary HTS)]. The format is functional. Particulars: Homo sapiens.
Test [8] can be described thus: Luminescence Cell-Based Dose Response HTS to Identify Activators of Luciferase Translation or Activity in H4 […] Cells. [Related pubchem assays: 1829 (Project Summary), 1814 (Primary HTS)]. The format is functional.
A short description of test [9]: Luminescence Cell-Based Dose Confirmation HTS to Identify Activators of 5'UTR Stem-Loop Driven Alpha-Synuclein mRNA Translation in H4 Neuroglioblastoma Cells. [Related pubchem assays: 1829 (Project Summary), 1814 (Primary HTS)]. The format is functional.
Test [10] concerns the target FAD-linked sulfhydryl oxidase ALR (Homo sapiens, UniProt P55789). Kind of test: inhibitors of human ALR sulfhydryl oxidase, dose response, biochemical, H2O2 detection, luminescence, cherry-pick (AID 493248).
Test [11] can be described thus: M. tuberculosis H37Rv growth inhibitors, H37Rv strain (AID 1626). The format is functional.
In test [12] the target is E3 ubiquitin-protein ligase Mdm2 (Homo sapiens, UniProt Q00987). Kind of test: enhancers of MDM2-luciferase reporter signal, concentration-effect titration, project on inhibitors of MDM2 ubiquitin ligase, cellular assay, luminescent readout, 384-well plate format (AID 1394).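 Also: MDM2 E3 inhibitors raise luminescence so EC50 is for signal enhancement.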 The format is functional.
Test [13] addresses T4, Heat shock factor protein 1 (Mus musculus, UniProt P38532).
T4 sequence (P38532 whole entry): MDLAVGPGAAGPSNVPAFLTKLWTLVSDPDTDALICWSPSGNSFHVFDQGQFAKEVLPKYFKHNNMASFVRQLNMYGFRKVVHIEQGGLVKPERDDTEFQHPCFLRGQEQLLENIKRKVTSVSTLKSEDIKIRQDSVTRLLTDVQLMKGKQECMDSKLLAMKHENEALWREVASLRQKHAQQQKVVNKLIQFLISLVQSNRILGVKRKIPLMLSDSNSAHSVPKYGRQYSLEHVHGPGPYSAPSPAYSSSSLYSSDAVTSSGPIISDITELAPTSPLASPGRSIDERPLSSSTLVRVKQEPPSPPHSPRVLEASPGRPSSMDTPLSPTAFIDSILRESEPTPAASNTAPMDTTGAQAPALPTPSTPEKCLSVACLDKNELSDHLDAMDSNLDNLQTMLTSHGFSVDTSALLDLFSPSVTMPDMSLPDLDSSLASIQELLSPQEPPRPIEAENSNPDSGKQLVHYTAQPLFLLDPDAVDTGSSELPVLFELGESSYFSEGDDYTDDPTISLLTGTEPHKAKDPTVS
Kind of test: HSF1 potentiators in luciferase reporter cells, confirmation, cell-based, NIH3T3, luminescence, dose retest (AID 435004).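 Also: stress induced by proteasome inhibitor MG132 added 30 min after compound; luciferase reporter driven by HSF1 response element in NIH3T3 cells; actives raise luminescence as potentiators of the MG132 stress response.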 The format is functional. Background: Reporter assays use an easily measured gene product as a stand-in for the process of interest.

For test [14], the target named is T5, Mannose-6-phosphate isomerase (Homo sapiens, UniProt P34949).
T5 sequence (P34949 whole entry): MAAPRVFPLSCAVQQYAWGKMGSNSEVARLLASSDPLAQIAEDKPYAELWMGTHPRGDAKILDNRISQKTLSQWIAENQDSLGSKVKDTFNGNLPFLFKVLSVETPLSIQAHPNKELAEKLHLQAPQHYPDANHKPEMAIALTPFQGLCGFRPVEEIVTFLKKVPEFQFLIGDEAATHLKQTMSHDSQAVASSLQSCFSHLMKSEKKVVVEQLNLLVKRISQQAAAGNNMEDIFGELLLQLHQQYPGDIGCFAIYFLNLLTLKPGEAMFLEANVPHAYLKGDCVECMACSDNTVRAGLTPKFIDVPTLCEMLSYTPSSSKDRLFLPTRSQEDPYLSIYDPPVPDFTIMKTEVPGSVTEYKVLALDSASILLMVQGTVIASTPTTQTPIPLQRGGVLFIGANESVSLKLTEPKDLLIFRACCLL
Kind of test: human PMI inhibitors, high substrate, primary screen, biochemical, fluorescence intensity, high mannose 6-phosphate (AID 1220).

A further test addresses Cytochrome P450 2C9 (Homo sapiens, UniProt P11712).
The nature of test [15]: HepG2 cell cytotoxicity, dose response, cytotoxicity control, cherry-picked samples (AID 1159577). The class given is functional, cell-based.
For test [16], the target named is T6, Endoribonuclease toxin MazF (Escherichia coli K-12, UniProt P0AE70).
T6 sequence (P0AE70 whole entry): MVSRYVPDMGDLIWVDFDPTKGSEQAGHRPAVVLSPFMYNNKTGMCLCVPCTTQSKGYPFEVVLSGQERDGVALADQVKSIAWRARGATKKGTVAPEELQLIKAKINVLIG
Kind of test: MazF toxin RNase activators, dose response, biochemical, fluorescence, single-stranded RNA substrate, uHTS hits (AID 588481). The format is functional.

Test [17] addresses T6, Endoribonuclease toxin MazF. Kind of test: fluorescent RNA oligo signal without MazF, dose response, counter-screen for MazEF activator project, biochemical, fluorescence, single-stranded RNase substrate (AID 588502). The format is functional.

Activity calls are given as the source filed them. Some results are limits rather than exact numbers.

T3 sequence (P98170 whole entry): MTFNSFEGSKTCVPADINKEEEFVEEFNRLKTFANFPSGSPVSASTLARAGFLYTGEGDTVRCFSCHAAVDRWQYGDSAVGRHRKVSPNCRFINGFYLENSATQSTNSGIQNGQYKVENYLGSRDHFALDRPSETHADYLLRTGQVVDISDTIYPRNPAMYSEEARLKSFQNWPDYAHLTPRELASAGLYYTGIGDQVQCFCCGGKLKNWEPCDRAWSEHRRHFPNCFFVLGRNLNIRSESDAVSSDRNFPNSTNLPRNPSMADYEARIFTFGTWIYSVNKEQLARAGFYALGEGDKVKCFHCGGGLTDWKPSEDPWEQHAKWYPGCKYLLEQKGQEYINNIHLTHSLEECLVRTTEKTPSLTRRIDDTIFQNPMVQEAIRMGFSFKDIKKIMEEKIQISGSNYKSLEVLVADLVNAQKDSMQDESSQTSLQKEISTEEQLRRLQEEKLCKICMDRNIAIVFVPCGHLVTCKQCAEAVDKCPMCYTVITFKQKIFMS
Chain of Mitogen-activated protein kinase 10 (P53779 whole entry): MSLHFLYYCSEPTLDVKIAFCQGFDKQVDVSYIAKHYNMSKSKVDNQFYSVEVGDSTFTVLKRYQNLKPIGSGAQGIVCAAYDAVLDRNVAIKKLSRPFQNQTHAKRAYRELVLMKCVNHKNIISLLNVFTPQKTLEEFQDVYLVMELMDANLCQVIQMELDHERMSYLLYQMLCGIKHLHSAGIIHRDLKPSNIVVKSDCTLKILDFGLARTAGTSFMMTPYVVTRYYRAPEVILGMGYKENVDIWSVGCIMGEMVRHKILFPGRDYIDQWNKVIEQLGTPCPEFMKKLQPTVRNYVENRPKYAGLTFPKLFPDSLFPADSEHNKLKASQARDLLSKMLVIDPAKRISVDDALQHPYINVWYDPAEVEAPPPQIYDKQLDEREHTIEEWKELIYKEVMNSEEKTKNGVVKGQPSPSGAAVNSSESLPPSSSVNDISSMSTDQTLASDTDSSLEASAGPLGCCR
Chain of E3 ubiquitin-protein ligase Mdm2 (Q00987 whole entry): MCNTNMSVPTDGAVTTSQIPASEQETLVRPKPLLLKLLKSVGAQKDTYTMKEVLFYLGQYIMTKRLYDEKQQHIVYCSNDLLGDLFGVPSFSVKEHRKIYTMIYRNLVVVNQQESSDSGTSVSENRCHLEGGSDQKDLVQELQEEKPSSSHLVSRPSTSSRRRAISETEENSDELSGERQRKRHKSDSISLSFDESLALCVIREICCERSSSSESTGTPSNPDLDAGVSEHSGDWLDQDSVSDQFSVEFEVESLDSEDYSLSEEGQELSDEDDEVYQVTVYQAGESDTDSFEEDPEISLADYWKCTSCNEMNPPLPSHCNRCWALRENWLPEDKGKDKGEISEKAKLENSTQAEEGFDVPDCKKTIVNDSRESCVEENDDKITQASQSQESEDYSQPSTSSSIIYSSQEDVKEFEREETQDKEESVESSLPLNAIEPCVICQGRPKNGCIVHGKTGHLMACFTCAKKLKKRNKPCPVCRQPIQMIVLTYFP
Chain of Cytochrome P450 2C9 (P11712 whole entry): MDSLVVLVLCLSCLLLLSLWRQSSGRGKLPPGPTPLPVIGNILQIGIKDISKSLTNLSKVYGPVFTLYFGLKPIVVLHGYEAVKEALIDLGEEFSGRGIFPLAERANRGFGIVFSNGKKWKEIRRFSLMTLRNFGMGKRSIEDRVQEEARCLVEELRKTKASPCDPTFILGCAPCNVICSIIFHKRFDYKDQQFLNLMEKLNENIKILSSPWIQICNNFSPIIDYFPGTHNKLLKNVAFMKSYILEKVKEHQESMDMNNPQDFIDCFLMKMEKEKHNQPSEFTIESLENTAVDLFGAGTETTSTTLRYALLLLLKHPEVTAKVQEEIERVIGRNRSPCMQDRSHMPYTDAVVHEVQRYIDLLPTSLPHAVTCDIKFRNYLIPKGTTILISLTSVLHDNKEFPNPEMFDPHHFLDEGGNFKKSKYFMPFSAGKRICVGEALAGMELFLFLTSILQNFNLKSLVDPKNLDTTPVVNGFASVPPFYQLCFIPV
Chain of FAD-linked sulfhydryl oxidase ALR (P55789 whole entry): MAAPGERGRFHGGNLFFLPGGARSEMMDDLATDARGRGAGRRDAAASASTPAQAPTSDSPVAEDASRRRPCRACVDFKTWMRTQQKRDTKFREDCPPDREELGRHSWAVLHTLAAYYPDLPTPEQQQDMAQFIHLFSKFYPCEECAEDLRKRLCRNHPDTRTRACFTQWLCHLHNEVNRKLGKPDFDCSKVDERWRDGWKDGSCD

As for `O=c1c2ccccc2oc2cc(C#CC3(O)CCCCC3)ccc12`, in test [1], the half-maximal inhibitory concentration (IC50) was > 9.49 µM (active).

In the case of `CNCc1ccccc1Sc1cccc(O)c1`, in [2], the AC50 was > 20 µM (inactive).

For `CCOC(=O)c1[nH]nc2ccccc12`, the IC50 in test [3] is on record as > 31 µM (not active).

In the case of `N#C/C(=C\c1ccc(-c2ccc(C(=O)O)cc2)o1)C(=O)NCC1CCCO1` (stereo not drawn), the AC50 in test [2] is > 20 µM (inactive).

For the molecule `Cc1cc(NC(=O)Cc2csc(-c3ccccc3)n2)ccc1Br`, the IC50 in test [4] is > 100 µM (inactive); in test [5], > 100 µM (not active).

In the case of `N#Cc1ccc(-c2ccc([C@@H]3[C@@H]4CN(C(=O)Nc5ccc6c(c5)OCO6)C[C@H]3N4)cc2)cc1`, the AC50 in test [6] is 6.54 µM (active); in test [7], 3.41 µM (active).

Consider `C[n+]1c2n(c3ccccc31)N=C(c1ccccc1)CS2`, for which the figures for the EC50 (in the test on H4; in test [8]; in test [9]) were > 120 µM (not active), > 120 µM (not active) and 16 µM (active), respectively. Moreover, the IC50 in [1] is 13.8 µM (inactive). Besides, the AC50 in test [10] is 1.14 µM (active).

For `O=C(Nc1ccc(-c2csnn2)cc1)C1CC1`, the IC50 in test [11] was > 100 µM (active). Besides, in test [12], the EC50 is 3.55 µM (not active).

In the case of `Nc1cnn(Cc2ccc(F)cc2)c1`, in test [11], the concentration for half-maximal inhibition (IC50) was > 100 µM (active). Also, in test [13], the EC50 is > 260 µM (inactive).

For the molecule `CC(SCc1ccccc1)C(=O)NCc1ccccn1` (stereo not drawn), the IC50 in test [4] is > 100 µM (inactive); in [5] it was > 100 µM (not active).

Consider `CC(C)N(C(=O)Nc1ccc2nccnc2c1)C(C)C`, for which the IC50 in [14] was > 50 µM (not active).

As to `Oc1[nH]c2ccccc2c1/C=N/c1nccs1`, at Cytochrome P450 2C9, the concentration at half-maximal activity (AC50) is 25.1 µM (inconclusive). For the same molecule, the IC50 in test [3] is listed as 46.6 µM (not active).

As to `COc1cccc(-c2ccc3c(c2)[C@@H]2[C@@H](CCN2C(=O)NC2CCCCC2)[C@@H](CO)N3C)c1`, the concentration at half-maximal activity (AC50) in test [15] is 41.4 µM (active); in [7], 2.88 µM (active).

With `CCSc1nnc(NC(=O)c2cc(-c3ccc(C)c(C)c3O)[nH]n2)s1`, the IC50 in [4] is > 100 µM (inactive); in test [5], > 100 µM (not active).

`CN1C=CC(=C2C(=O)c3ccccc3C2=O)C=C1`: in test [3], the IC50 is 28.5 µM (not active).

With `C[C@@H]1CCCCO[C@@H](CN(C)Cc2ccc(Cl)c(Cl)c2)[C@@H](C)CN([C@@H](C)CO)C(=O)c2cc(NS(=O)(=O)c3cccs3)ccc2O1`, the AC50 in [6] is 1.54 µM (active).

`CCN1C(=O)C(=Cc2cc(C)n(C3CC3)c2C)C(=O)N(CC)C1=S`: in test [14], the IC50 is recorded as > 50 µM (not active). Further, the EC50 in [16] was 44.4 µM (inactive); in test [17], > 99 µM (inactive).

Consider `COc1ccccc1OCC(=O)Nc1cc(S(=O)(=O)N2CCCCC2)ccc1N1CCCCC1`, for which the EC50 in test [12] is listed as 6.4 µM (not active).

For the molecule `CCN(CC)CCCN(Cc1cc2cc3c(cc2nc1O)OCO3)C(S)=NCc1ccco1`, the AC50 in test [2] is > 20 µM (inactive).

The term IC50 denotes the concentration needed to halve the response being measured. Broadly, the AC50 is the midpoint of the concentration-response curve, whichever way the signal moves. The EC50 is the midpoint of the concentration-response curve.
